Test results as given in US10167302B2, “Phosphonate nucleosides useful in the treatment of viral diseases” (University College Cork, priority 2014, dated 2019).
Read-outs that look alike come from different tables or passages of the source.

What was measured:
HSV-1 DNA pol = HSV-1 DNA pol (Human herpesvirus 1, UniProt P04293); experiment: HSV-1 DNA polymerase activity, calf thymus DNA as template primer; type: biochemical; conditions: [3H]dTTP incorporation, all four dNTPs
Description: (§1) The HCMV and HSV-1 DNA polymerase activity was measured in the presence of calf thymus DNA as template primer, and all four dNTPs as the nucleotide substrates of which dTTP was tritiated.

HIV-1 RT = biological target: T1, HIV-1 RT (Human immunodeficiency virus type 1 group M subtype B, UniProt P04585); experiment: HIV-1 RT assay in the presence of artificial template/primer; type: biochemical
T1 construct: HIV-1 RT Assays in the Presence of Artificial Template/Primer
Description: HIV-1 RT Assays in the Presence of Artificial Template/Primer
To prepare the template/primers for the RT experiments, 0.15 mM poly(U), poly(A), and poly(I) were mixed with an equal volume of 0.0375 mM oligo(dA), oligo(dT), and oligo(dC), respectively. The final concentrations of the templates in the RT reaction mixture were 0.015 mM. The reaction mixture (50 μl) contained 50 mM Tris.HCl (pH 7.8), 5 mM dithiothreitol, 300 mM glutathione, 500 μM EDTA, 150 mM KCl, 5 mM MgCl2, 1.25 μg of bovine serum albumin, an appropriate concentration of labeled (tritiated) substrate dTTP, dCTP, or dATP (2 μCi/assay), a fixed concentration of the template/primer poly(A).oligo(dT) (0.015 mM), poly(I).oligo(dC) (0.015 mM), and poly(U).oligo(dA) (0.015 mM), 0.06% Triton X-100, 10 μl of inhibitor solution (containing various concentrations of the compounds), and 1 μl of the RT preparation. The reaction mixtures were incubated at 37° C. for 30 min, at which time 100 μl of yeast RNA (1 mg/ml) and 1 ml of Na4P2O7 (0.02 M) in trichloroacetic acid (5% v/v) were added. The solutions were kept on ice for 30 min, after which the acid-insoluble material was washed and analyzed for radioactivity.

HCMV DNA pol = HCMV DNA pol (Human cytomegalovirus, UniProt P08546); experiment: HCMV DNA polymerase activity, calf thymus DNA as template primer; type: biochemical; conditions: [3H]dTTP incorporation, all four dNTPs
Chain of HCMV DNA pol (P08546 whole entry): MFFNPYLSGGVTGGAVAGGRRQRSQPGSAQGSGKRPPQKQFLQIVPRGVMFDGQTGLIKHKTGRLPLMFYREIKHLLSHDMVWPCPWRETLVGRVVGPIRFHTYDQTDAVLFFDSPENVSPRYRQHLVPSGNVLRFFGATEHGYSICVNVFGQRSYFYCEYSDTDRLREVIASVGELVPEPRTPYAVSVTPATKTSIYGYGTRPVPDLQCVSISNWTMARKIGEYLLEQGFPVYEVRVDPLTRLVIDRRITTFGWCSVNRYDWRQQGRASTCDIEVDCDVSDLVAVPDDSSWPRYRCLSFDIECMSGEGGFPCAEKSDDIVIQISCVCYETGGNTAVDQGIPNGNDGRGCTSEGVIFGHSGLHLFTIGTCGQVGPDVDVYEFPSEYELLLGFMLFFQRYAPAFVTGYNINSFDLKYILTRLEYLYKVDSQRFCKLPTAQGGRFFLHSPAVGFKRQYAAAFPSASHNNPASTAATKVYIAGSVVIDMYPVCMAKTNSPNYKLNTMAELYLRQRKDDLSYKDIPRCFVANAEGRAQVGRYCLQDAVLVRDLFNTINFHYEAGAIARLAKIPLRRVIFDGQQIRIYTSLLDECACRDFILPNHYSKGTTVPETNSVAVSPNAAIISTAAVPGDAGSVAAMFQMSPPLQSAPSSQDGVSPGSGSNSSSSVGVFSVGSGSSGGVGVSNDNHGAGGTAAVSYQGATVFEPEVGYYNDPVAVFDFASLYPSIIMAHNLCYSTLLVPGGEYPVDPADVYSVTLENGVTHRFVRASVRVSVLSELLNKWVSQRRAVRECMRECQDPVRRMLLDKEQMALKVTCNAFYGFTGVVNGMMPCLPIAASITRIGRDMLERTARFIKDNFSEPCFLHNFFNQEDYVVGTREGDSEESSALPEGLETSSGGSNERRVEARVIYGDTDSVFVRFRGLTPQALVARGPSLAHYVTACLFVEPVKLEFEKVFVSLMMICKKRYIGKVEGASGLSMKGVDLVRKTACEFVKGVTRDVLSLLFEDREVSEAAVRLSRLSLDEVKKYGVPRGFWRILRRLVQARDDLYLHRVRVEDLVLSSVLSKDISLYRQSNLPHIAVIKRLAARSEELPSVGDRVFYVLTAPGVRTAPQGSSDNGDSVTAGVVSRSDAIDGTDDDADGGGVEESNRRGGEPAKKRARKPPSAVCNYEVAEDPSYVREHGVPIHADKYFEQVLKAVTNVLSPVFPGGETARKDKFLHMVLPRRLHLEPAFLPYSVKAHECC
Description: as §1

[1] = values marked *: in poly rA.dT/dTTP RT assay, read-out: IC50 HIV-1 RT

Chain of HSV-1 DNA pol (P04293 whole entry): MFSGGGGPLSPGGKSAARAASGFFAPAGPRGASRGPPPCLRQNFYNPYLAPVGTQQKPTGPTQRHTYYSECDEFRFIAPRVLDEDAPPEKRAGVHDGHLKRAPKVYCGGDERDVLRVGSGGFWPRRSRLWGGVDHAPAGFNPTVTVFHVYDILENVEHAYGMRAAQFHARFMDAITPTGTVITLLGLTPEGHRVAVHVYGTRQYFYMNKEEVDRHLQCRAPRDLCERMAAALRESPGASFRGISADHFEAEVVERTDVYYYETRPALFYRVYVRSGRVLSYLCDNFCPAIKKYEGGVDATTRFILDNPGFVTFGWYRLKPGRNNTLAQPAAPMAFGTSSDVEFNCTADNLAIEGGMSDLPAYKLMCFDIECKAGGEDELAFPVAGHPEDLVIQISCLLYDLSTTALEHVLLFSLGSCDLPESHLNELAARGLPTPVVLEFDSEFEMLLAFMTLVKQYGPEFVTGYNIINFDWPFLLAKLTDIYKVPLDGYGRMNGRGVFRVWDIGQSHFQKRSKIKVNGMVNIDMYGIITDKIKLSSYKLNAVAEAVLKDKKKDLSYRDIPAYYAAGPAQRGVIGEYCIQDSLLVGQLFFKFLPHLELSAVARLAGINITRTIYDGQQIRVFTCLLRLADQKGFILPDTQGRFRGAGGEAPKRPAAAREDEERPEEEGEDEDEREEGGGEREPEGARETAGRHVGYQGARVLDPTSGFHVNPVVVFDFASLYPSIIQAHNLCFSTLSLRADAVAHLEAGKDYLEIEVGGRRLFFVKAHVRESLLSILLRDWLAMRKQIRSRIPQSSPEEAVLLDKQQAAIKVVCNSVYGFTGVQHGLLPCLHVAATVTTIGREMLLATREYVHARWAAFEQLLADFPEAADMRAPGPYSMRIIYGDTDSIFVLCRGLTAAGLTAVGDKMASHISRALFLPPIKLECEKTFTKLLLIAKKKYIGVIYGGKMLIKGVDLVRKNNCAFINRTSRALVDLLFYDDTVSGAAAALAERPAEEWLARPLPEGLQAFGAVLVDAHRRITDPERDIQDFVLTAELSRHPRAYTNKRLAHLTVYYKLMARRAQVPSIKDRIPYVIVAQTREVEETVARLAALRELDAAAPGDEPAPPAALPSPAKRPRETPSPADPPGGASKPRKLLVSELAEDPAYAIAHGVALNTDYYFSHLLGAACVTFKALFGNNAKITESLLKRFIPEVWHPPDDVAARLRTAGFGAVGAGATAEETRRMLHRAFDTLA

melting point [°C]	Compound	IC50 (HSV-1 DNA pol) [µM]	IC50 (HIV-1 RT) [µM]	IC50 (HCMV DNA pol) [µM]	IC50 (HIV-1 RT; [1]) [µM]
	Cc1cn(CCOC(C(=O)O)P(=O)(O)O)c(=O)[nH]c1=O (stereo not drawn) [Compound 8a, 2-(2-(5-Methyl-2,4-dioxo-3,4-dihydropyrimidin-1(2H)-yl)ethoxy)-2-phosphonoacetic acid]	19	17	161 ± 8	
	Cc1cn(CC(C)OC(C(=O)O)P(=O)(O)O)c(=O)[nH]c1=O (stereo not drawn) [Compound 8b, 2-((1-(5-Methyl-2,4-dioxo-3,4-dihydropyrimidin-1(2H)-yl)propan-2-yl)oxy)-2-phosphonoacetic acid]	12	18	111 ± 24	
	Cc1cn(C(C)COC(C(=O)O)P(=O)(O)O)c(=O)[nH]c1=O (stereo not drawn) [Compound 8c, 2-(2-(5-Methyl-2,4-dioxo-3,4-dihydropyrimidin-1(2H)-yl)propoxy)-2-phosphonoacetic acid]	16	133 ± 16	> 200	
	Cc1cn(C/C=C\COC(C(=O)O)P(=O)(O)O)c(=O)[nH]c1=O (stereo not drawn) [Compound 13a, cis-2-(4-(2,4-Dioxo-5-methyl-pyrimidin-1-yl)but-2-enyloxy)-2-phosphonoacetic acid]	20	235 ± 16	2.1 ± 0.6	
	Cc1cn(CC#CCOC(C(=O)O)P(=O)(O)O)c(=O)[nH]c1=O (stereo not drawn) [Compound 13b, 2-(4-(2,4-Dioxo-5-methyl-pyrimidin-1-yl)but-2-ynyloxy)-2-phosphonoacetic acid]		> 500	> 500	
	Cc1cn(C[C@H]2C[C@H]2COC(C(=O)O)P(=O)(O)O)c(=O)[nH]c1=O (stereo partly drawn) [Compound 13c]	35	440 ± 85	4.6 ± 0.2	
	Cc1cn(C[C@H]2CCC[C@H]2COC(C(=O)O)P(=O)(O)O)c(=O)[nH]c1=O (stereo partly drawn) [Compound 13d]	34	≥ 500	40 ± 25	
	Cc1cn(C[C@H]2CC=CC[C@H]2COC(C(=O)O)P(=O)(O)O)c(=O)[nH]c1=O (stereo partly drawn) [Compound 13e]	16	425 ± 106	3 ± 0.5	
	Cc1cn(C[C@H]2C3C=CC(C3)[C@H]2COC(C(=O)O)P(=O)(O)O)c(=O)[nH]c1=O (stereo partly drawn) [Compound 13f]	32	340 ± 139	14 ± 2	
	Cc1cn(Cc2ccccc2COC(C(=O)O)P(=O)(O)O)c(=O)[nH]c1=O (stereo not drawn) [Compound 13g, 2-(2-((2,4-Dioxo-5-methyl-pyrimidin-1-yl)methyl)benzyloxy)-2-phosphonoacetic acid]	11	131 ± 86	13 ± 4	
	Cc1cn(CCCCOC(C(=O)O)P(=O)(O)O)c(=O)[nH]c1=O (stereo not drawn) [Compound 13h, 2-(4-(2,4-Dioxo-5-methyl-pyrimidin-1-yl)butyloxy)-2-phosphonoacetic acid]	56	145 ± 106	29 ± 3	
	Cc1cn(C[C@H]2CCCC[C@H]2COC(C(=O)O)P(=O)(O)O)c(=O)[nH]c1=O (stereo partly drawn) [Compound 13i]	13	≥ 500	4	
	COC(=O)C(OC[C@@H]1CCCC[C@@H]1Cn1cc(C)c(=O)[nH]c1=O)P(=O)(O)O (stereo partly drawn) [Compound 13j]	43	≥ 500	16 ± 3	
	O=C(O)C(OC/C=C\Cn1cc(F)c(=O)[nH]c1=O)P(=O)(O)O (stereo not drawn) [Compound 13k, 2-Cis-(4-(5-fluoro-2,4-dioxo-3,4-dihydropyrimidin-1(2H)-yl)but-2-enyloxy)-2-phosphonoacetic acid]				> 500
	O=C(O)C(OCCCCn1cc(F)c(=O)[nH]c1=O)P(=O)(O)O (stereo not drawn) [Compound 13l, 2-(4-(5-fluoro-2,4-dioxo-3,4-dihydropyrimidin-1(2H)-yl)butoxy)-2-phosphonoacetic acid]				214
	Nc1ncnc2c1ncn2C/C=C\COC(C(=O)O)P(=O)(O)O (stereo not drawn) [Compound 13m, 2-Cis-(4-(6-amino-9H-purin-9-yl)but-2-enyloxy)-2-phosphonoacetic acid]				426
	Nc1nc(Cl)c2ncn(C/C=C\COC(C(=O)O)P(=O)(O)O)c2n1 (stereo not drawn) [Compound 13n, 2-Cis-(4-(2-amino-6-chloro-9H-purin-9-yl)but-2-enyloxy)-2-phosphonoacetic acid]				≥ 500
	Nc1ccn(C/C=C\COC(C(=O)O)P(=O)(O)O)c(=O)n1 (stereo not drawn) [Compound 13o, 2-Cis-(4-(4-amino-2-oxopyrimidin-1(2H)-yl)but-2-enyloxy)-2-phosphonoacetic acid]				246
189 to 191	Cc1cn(Cc2cn(CCOC(C(=O)O)P(=O)(O)O)nn2)c(=O)[nH]c1=O (stereo not drawn) [JJ-210, 2-(2-(4-((5-methyl-2,4-dioxo-3,4-dihydropyrimidin-1(2H)-yl)methyl)-1H-1,2,3-triazol-1-yl)ethoxy)-2-phosphonoacetic acid]				
199 to 201	Cc1cn(C[C@@H](O)[C@@H](O)COC(C(=O)O)P(=O)(O)O)c(=O)[nH]c1=O (stereo partly drawn) [JJ-379]				
